According to patent US9261498B2, “Biomarker for sensitivity to mTOR inhibitor therapy in kidney cancer” (The Regents of the University of California, priority 2005, dated 2016):
“Also recorded” adds a separate entry of the source.

Tests used:
ACHN-CSCG cells = assay: In vitro growth (cell counts), parental empty-vector cells; assay type: cell-based, human; details: 10 nM CCI-779, day 5
Experimental: (§1) FIGS. 1A-1E. Effects of VHL knockdown on sensitivity to CCI-779. (a) Immunoblotting of lysates derived from shRNA and control (empty vector, V) in SN12C, using antibodies against VHL (both isoforms detected), HIF-1α, HIF-2α, GLUT-1, CA-IX and β-Actin (as a loading control). (b) SN12C-CSCG and SN12C-VHLshRNA cells (1×10^5) were cultured in 10% serum rich media, in the presence of vehicle, 1 or 10 nM of CCI-779 for 5 days. Cell growth was measured by cell counts (n=3). […] (c) SN12C-CSCG (C1) and SN12C-CSCG shVHL RNA (C2) cells were injected into SCID mice at a dose of 1×10^6 cells per mouse (n=30). […] Phosphorylated-S6 protein in SN12C-CSCG and SN12C-VHL shRNA xenograft tumors treated with vehicle or 0.1 mg/kg of CCI-779 was measured by immunoblot C3 and C4). […]
(§2) For in vitro experiments, cells (5×10^4) were plated and treated with 1 and 10 nM CCI-779 (kind gift of J. Gibbons, Wyeth) or vehicle (ethanol). On day 5-post treatment, cells were trypsinized, resuspended in DMEM with 10% FBS and counted using the VI CELL counter (Beckman Coulter), according to the manufacturer's instructions. […] In vivo tumorigenicity was measured by injection of 5×10^5 SN12C-CSCG, ACHN-CSCG, SN12C-CSCG-VHLshRNAi, ACHN-CSCG-VHLshRNAi, SN12C-CSCG-VHLshRNAi-pBABE, SN12C-CSCG-VHLshRNAi-pBABE-HA-HIF-2α (P405A; P531A) cells in 100 μl of Matrigel (Collaborative Biomedical) subcutaneously into the flanks of SCID mice. […]

SN12C-CSCG cells = assay: as above; assay type: cell-based, human; details: 1 and 10 nM CCI-779, day 5, 10% serum; b106 at 10 nM
Experimental: as §1, §2

Compound: CO[C@H]1C[C@@H]2CC[C@@H](C)[C@@](O)(O2)C(=O)C(=O)N2CCCC[C@H]2C(=O)O[C@H]([C@H](C)C[C@@H]2CC[C@@H](OC(=O)C(C)(CO)CO)[C@H](OC)C2)CC(=O)[C@H](C)/C=C(\C)[C@@H](O)[C@@H](OC)C(=O)[C@H](C)C[C@H](C)/C=C/C=C/C=C/1C [CCI-779]
- cell growth (ACHN-CSCG cells): not affected
- cell growth (SN12C-CSCG cells): not affected; also recorded: not sensitive
